Assay results reported in patent US20060030556A1, “Neurokinin-1 receptor antagonists for the treatment of conditions responsive to testosterone elevation, including testosterone deficiency” (SOLVAY PHARMACEUTICALS B.V., priority 2004, published 2006).

Assays:
[1] = Serum testosterone in chronic psychosocial stress with concomitant Compound 1 treatment (enzyme-immunoassay); format: in vivo, tree shrews (Tupaia belangen)
Description: (§1) The experiments were carried out using tree shrews (Tupaia belangen). Experimentally naive adult male tree shrews were obtained from the breeding colony at the German Primate Center (Göttingen, Germany). Animals were housed individually in air-conditioned facilities on a 12 hr/12 hr light/dark cycle with artificial illumination (lights on from 8:00 A.M. to 8:00 P.M.) and with free access to food and water (Fuchs E. “Tree shrews”, In: Poole T, (ed) UFAW handbook on the care and management of laboratory animals Oxford: Blackwell, 235-245, 1999). All treatments were performed during the day (activity period, lights on). Animal experiments were conducted in accordance with the European Communities Council Directive of Nov. 24, 1986 […] and were approved by the Government of Lower Saxony, Germany.
The experimental design was as follows: Animals were divided into three experimental groups: ‘Control’, ‘Stress’ and ‘Stress+Compound 1’, each consisting of six tree shrews. The experiment consisted of three different phases and lasted for six weeks (42 days). The first experimental phase went on for 7 days, during which all animals remained undisturbed and body weight was recorded daily. The second phase of the experiment was a 7-day period, during which the animals of the Stress' and the ‘Stress+Compound 1’ group were submitted to daily psychosocial conflict. For the induction of psychosocial conflict one naive male was introduced into the cage of a socially experienced male. After establishment of a clear dominant/subordinate relationship, the two animals were separated by a wire mesh barrier. […]
For determination of testosterone, 100 μl serum was two times extracted with 1 ml of diethylether by vortexing for 10 min. […] 50 μl aliquots of reconstituted extracts were then measured for concentrations of testosterone by enzyme-immunoassay as described by Kraus et al. (Physiol. Behav. 66: 855-861, 1999). […]
Serum testosterone levels were measured from blood samples collected before perfusing the animals. […]

[2] = tested on: NK1 receptors in the tree shrew brain; experiment: Nicotine-induced emesis pilot study to establish the dose that blocks NK1 receptors in tree shrew brain; format: in vivo, tree shrews (Tupaia belangen); settings: 30 min before s.c. (-)-nicotine 4 mg/kg, episodes counted over following 30 min, n=4 crossover
Description: as §1
Animals received the NK1 receptor antagonist Compound 1 orally. A pilot study to establish the dose of Compound 1 that blocks NK1 receptors in the tree shrew brain was conducted. The methodology used is based on the ability of NK1 receptor antagonists to block nicotine-induced vomiting in musk shrews (Tattersall et al., Neuropharmacology, 34, 1697-1699, 1995). Adult tree shrews (n=4) received either vehicle or Compound 1 in different dosage orally followed 30 minutes later by subcutaneous administration of (−)-nicotine (4 mg/kg; Sigma), and the number of emetic episodes occurring during the following 30 min was recorded. Each animal received each treatment in a crossover design, with 10 days washout period between studies. Emetic episodes were abolished by treatment with 20 mg/kg per day Compound 1, whereas lower doses, i.e. 5 or 10 mg/kg per day and vehicle were ineffective.

[3] = 20 mg/kg/day oral for 28 days, p<0.05

SMILES: O=C(c1cccc(C(F)(F)F)c1)N1C[C@H]2CC[C@H](N3CCOCC3)CN2C[C@H]1Cc1c[nH]c2ccccc12 [Compound 1]
- serum testosterone concentrations compared to 'Control' animals [1, 3]: two fold increase
- testosterone levels compared to the 'Stress' group [1, 3]: six times higher
- Serum testosterone concentration ([1]; Stress + Compound 1 group, 20 mg/kg/day oral for 28 days during psychosocial stress, n = 6, p<0.05 versus Control and versus Stress): 6.45 ± 2.00 *# (n = 6) ng/ml
- emetic episodes after (-)-nicotine ([2]; 5 mg/kg per day oral): ineffective
- emetic episodes after (-)-nicotine ([2]; 10 mg/kg per day oral): ineffective
- emetic episodes after (-)-nicotine ([2]; 20 mg/kg per day oral): abolished
